Literature values in article PMC8287861 (Frontiers in Microbiology, 2021).
In brackets after ≈: the same amount, converted by molar mass.

Assays:
Set-up in all cases: method as in Lomovskaya et al. (2020b)
PAM4743 CTX-M-15 = settings: PAM4743, CTX-M-15, class A; ref Lomovskaya et al. (2020b)
PAM4820 CTX-M-25 = settings: PAM4820, CTX-M-25, class A; ref Lomovskaya et al. (2020b)
PAM4822 CTX-M-27 = settings: PAM4822, CTX-M-27, class A; ref Lomovskaya et al. (2020b)
PAM4886 GES-1 = settings: PAM4886, GES-1, class A; ref Lomovskaya et al. (2020b)
PAM4840 OXY-6-2 = settings: PAM4840, OXY-6-2, class A; ref Lomovskaya et al. (2020b)
PAM4842 PER-2 = settings: PAM4842, PER-2, class A; ref Lomovskaya et al. (2020b)
PAM4878 TEM-10 = settings: PAM4878, TEM-10, class A; ref Lomovskaya et al. (2020b)
PAM4908 VEB-1 = settings: PAM4908, VEB-1, class A; ref Lomovskaya et al. (2020b)
PAM4912 VEB-3 = settings: PAM4912, VEB-3, class A; ref Lomovskaya et al. (2020b)
PAM4938 VEB-9 = settings: PAM4938, VEB-9, class A; ref Lomovskaya et al. (2020b)
PAM4794 NMC-1 = settings: PAM4794, NMC-1, class A-CARB; ref Lomovskaya et al. (2020b)
PAM4825 MIR-1 = settings: PAM4825, MIR-1, class C; ref Lomovskaya et al. (2020b)
PAM4745 P99 = settings: PAM4745, P99, class C; ref Lomovskaya et al. (2020b)
PAM4869 PDC-1 = settings: PAM4869, PDC-1, class C; ref Lomovskaya et al. (2020b)
PAM4846 OXA-9 = settings: PAM4846, OXA-9, class D; ref Lomovskaya et al. (2020b)
PAM4790 OXA-10 = settings: PAM4790, OXA-10, class D; ref Lomovskaya et al. (2020b)
PAM4217 OXA-48 = settings: PAM4217, OXA-48, class D-CARB; ref Lomovskaya et al. (2020b)
PAM4179 NDM-1 = settings: PAM4179, NDM-1, class B1; ref Lomovskaya et al. (2020b)
PAM4881 VIM-7 = settings: PAM4881, VIM-7, class B1; ref Lomovskaya et al. (2020b)
PAM4887 IMP-1 = settings: PAM4887, IMP-1, class B1; ref Lomovskaya et al. (2020b)
PAM4888 IMP-4 = settings: PAM4888, IMP-4, class B1; ref Lomovskaya et al. (2020b)
PAM4198 IMP-15 = settings: PAM4198, IMP-15, class B1; ref Lomovskaya et al. (2020b)
PAM4890 IMP-19 = settings: PAM4890, IMP-19, class B1; ref Lomovskaya et al. (2020b)
PAM4889 IMP-26 = settings: PAM4889, IMP-26, class B1; ref Lomovskaya et al. (2020b)
PAM4879 CcrA1 = settings: PAM4879, CcrA1, class B1; ref Lomovskaya et al. (2020b)
PAM4885 SPM-1 = settings: PAM4885, SPM-1, class B1; ref Lomovskaya et al. (2020b)

| Compound | MIC (PAM4743 CTX-M-15) [µg/mL] | MIC (PAM4820 CTX-M-25) [µg/mL] | MIC (PAM4822 CTX-M-27) [µg/mL] | MIC (PAM4886 GES-1) [µg/mL] | MIC (PAM4840 OXY-6-2) [µg/mL] | MIC (PAM4842 PER-2) [µg/mL] | MIC (PAM4878 TEM-10) [µg/mL] | MIC (PAM4908 VEB-1) [µg/mL] | MIC (PAM4912 VEB-3) [µg/mL] | MIC (PAM4938 VEB-9) [µg/mL] | MIC (PAM4794 NMC-1) [µg/mL] | MIC (PAM4825 MIR-1) [µg/mL] | MIC (PAM4745 P99) [µg/mL] | MIC (PAM4869 PDC-1) [µg/mL] | MIC (PAM4846 OXA-9) [µg/mL] | MIC (PAM4790 OXA-10) [µg/mL] | MIC (PAM4217 OXA-48) [µg/mL] | MIC (PAM4179 NDM-1) [µg/mL] | MIC (PAM4881 VIM-7) [µg/mL] | MIC (PAM4887 IMP-1) [µg/mL] | also measured |
| --- | --- | --- | --- | --- | --- | --- | --- | --- | --- | --- | --- | --- | --- | --- | --- | --- | --- | --- | --- | --- | --- |
| CC(C)(O/N=C(\C(=O)N[C@@H]1C(=O)N2C(C(=O)[O-])=C(C[n+]3ccccc3)CS[C@H]12)c1csc(N)n1)C(=O)O [Ceftazidime, ceftazidime] | 32 (≈ 58.5 µM) | 8 (≈ 14.6 µM) | 64 (≈ 117 µM) | 64 (≈ 117 µM) | 0.5 (≈ 0.915 µM) | >64 | >64 | >64 | >64 | 256 (≈ 468 µM) | 1 (≈ 1.83 µM) | 16 (≈ 29.3 µM) | 64 (≈ 117 µM) | 16 (≈ 29.3 µM) | 0.25 (≈ 0.457 µM) | 0.25 (≈ 0.457 µM) | 0.25 (≈ 0.457 µM) | >64 | 0.5 (≈ 0.915 µM) | >64 | MIC (PAM4888 IMP-4): >64 µg/mL; MIC (PAM4198 IMP-15): 64 µg/mL (≈ 117 µM); MIC (PAM4890 IMP-19): >64 µg/mL; MIC (PAM4889 IMP-26): >64 µg/mL; MIC (PAM4879 CcrA1): 4 µg/mL (≈ 7.32 µM); MIC (PAM4885 SPM-1): >64 µg/mL |
| CCN1CCN(C(=O)N[C@@H](C(=O)N[C@@H]2C(=O)N3[C@@H]2SC(C)(C)[C@@H]3C(=O)O)c2ccccc2)C(=O)C1=O [Piperacillin, piperacillin] | >64 | >64 | >64 | 4 (≈ 7.73 µM) | >64 | 1 (≈ 1.93 µM) | 32 (≈ 61.8 µM) | 8 (≈ 15.5 µM) | 8 (≈ 15.5 µM) | 16 (≈ 30.9 µM) | 16 (≈ 30.9 µM) | 8 (≈ 15.5 µM) | 64 (≈ 124 µM) | >64 | 8 (≈ 15.5 µM) | 0.125 (≈ 0.242 µM) | 16 (≈ 30.9 µM) | 64 (≈ 124 µM) | 2 (≈ 3.86 µM) | 1 (≈ 1.93 µM) | MIC (PAM4888 IMP-4): 0.5 µg/mL (≈ 0.966 µM); MIC (PAM4198 IMP-15): 0.5 µg/mL (≈ 0.966 µM); MIC (PAM4890 IMP-19): 0.25 µg/mL (≈ 0.483 µM); MIC (PAM4889 IMP-26): 0.125 µg/mL (≈ 0.242 µM); MIC (PAM4879 CcrA1): 0.25 µg/mL (≈ 0.483 µM); MIC (PAM4885 SPM-1): 32 µg/mL (≈ 61.8 µM) |
